Laboratory results as given in ChEMBL document CHEMBL5046310, “Design, Synthesis and Biological Evaluation of Prodrugs of 666-15 as Inhibitors of CREB-Mediated Gene Transcription” (ACS Med Chem Lett, 2022).

How the values were obtained:
[1] = Tmax in C57BL/6 mouse at 10 mg/kg, ip measured up to 24 hrs by LC-MS/MS analysis; assay type: ADME, organism-based; conditions: in vivo
[2] = Tmax in C57BL/6 mouse at 20 mg/kg, po measured up to 24 hrs by LC-MS/MS analysis; assay type: ADME, organism-based; conditions: in vivo
[3] = Apparent permeability of the compound across apical to basolateral side in human Caco-2 cells; assay type: ADME, cell-based
[4] = Stability of the compound in DMEM media with 10% fetal bovine serum assessed as hydrolysis of prodrug at 25 uM measured for 5 mins by RP-HPLC analysis; assay type: ADME, cell-free; conditions: cattle

Row | Tmax [1] | Tmax [2] | Papp A→B [3] | t1/2 [4] | Compound
1 | 0.25 h | 2 h | < 0.11 ×10⁻⁶ cm/s |  | Cl.NCCCOc1cc2ccccc2cc1C(=O)NCCOc1cc2ccccc2cc1C(=O)Nc1ccc(Cl)cc1O
2 |  |  |  | 2.61 h | NCCCOc1cc2ccccc2cc1C(=O)NCCOc1cc2ccccc2cc1C(=O)Nc1ccc(Cl)cc1OCOP(=O)(O)O.O=C(O)C(F)(F)F
3 | 1 h | 2 h |  |  | NCCCOc1cc2ccccc2cc1C(=O)NCCOc1cc2ccccc2cc1C(=O)Nc1ccc(Cl)cc1OP(=O)(O)O.O=C(O)C(F)(F)F
